Laboratory results as given in ChEMBL document CHEMBL5247625, “Discovery and characterization of novel potent BCR-ABL degraders by conjugating allosteric inhibitor” (Eur J Med Chem, 2022).
pIC50: −log10 of the molar value.

How the values were obtained:
[1] = tested on: K562; experiment: cells; settings: Homo sapiens, K562, 48 h
Description: Antiproliferative activity against human K562 cells assessed as inhibition of cell growth incubated for 2 days by CCK8 assay

[2] = target: T1, Protein cereblon/Tyrosine-protein kinase ABL1/Breakpoint cluster region protein (Homo sapiens, UniProt P00519+P11274+Q96SW2); experiment: Protac activity at CRBN/BCR-ABL in human K562 cells assessed as increase in BCR-ABL degradation at 50 nM by Western blotting analysis; assay type: cell-based
T1 sequence (P00519 whole entry, looked up): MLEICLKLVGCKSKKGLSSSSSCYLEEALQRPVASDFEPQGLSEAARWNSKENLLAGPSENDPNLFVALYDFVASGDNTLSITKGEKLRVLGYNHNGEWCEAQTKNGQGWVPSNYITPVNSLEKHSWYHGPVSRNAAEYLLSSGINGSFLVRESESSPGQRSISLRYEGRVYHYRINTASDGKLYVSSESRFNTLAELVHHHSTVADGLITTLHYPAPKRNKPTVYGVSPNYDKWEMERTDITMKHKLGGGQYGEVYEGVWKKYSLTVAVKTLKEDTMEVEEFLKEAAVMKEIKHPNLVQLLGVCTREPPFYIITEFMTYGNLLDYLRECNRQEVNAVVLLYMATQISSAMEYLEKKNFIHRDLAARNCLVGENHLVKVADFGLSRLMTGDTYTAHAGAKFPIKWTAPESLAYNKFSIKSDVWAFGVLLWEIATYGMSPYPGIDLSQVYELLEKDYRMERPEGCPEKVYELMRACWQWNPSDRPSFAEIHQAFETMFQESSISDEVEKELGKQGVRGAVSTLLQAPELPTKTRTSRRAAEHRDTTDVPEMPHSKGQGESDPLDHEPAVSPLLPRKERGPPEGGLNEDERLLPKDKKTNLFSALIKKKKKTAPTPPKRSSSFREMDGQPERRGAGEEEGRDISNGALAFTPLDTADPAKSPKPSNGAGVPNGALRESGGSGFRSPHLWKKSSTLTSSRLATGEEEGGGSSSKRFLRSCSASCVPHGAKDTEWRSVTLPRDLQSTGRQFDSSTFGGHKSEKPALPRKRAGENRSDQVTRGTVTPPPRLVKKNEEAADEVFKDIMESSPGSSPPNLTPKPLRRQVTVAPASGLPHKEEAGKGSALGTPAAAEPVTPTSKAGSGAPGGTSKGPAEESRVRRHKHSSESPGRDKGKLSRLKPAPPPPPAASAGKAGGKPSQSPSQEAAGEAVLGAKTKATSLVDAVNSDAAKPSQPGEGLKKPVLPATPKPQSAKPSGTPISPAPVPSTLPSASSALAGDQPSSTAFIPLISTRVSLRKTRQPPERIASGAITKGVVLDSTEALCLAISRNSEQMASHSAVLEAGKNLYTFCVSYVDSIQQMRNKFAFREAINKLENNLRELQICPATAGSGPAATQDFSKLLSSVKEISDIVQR
T1 sequence (P11274 whole entry, looked up): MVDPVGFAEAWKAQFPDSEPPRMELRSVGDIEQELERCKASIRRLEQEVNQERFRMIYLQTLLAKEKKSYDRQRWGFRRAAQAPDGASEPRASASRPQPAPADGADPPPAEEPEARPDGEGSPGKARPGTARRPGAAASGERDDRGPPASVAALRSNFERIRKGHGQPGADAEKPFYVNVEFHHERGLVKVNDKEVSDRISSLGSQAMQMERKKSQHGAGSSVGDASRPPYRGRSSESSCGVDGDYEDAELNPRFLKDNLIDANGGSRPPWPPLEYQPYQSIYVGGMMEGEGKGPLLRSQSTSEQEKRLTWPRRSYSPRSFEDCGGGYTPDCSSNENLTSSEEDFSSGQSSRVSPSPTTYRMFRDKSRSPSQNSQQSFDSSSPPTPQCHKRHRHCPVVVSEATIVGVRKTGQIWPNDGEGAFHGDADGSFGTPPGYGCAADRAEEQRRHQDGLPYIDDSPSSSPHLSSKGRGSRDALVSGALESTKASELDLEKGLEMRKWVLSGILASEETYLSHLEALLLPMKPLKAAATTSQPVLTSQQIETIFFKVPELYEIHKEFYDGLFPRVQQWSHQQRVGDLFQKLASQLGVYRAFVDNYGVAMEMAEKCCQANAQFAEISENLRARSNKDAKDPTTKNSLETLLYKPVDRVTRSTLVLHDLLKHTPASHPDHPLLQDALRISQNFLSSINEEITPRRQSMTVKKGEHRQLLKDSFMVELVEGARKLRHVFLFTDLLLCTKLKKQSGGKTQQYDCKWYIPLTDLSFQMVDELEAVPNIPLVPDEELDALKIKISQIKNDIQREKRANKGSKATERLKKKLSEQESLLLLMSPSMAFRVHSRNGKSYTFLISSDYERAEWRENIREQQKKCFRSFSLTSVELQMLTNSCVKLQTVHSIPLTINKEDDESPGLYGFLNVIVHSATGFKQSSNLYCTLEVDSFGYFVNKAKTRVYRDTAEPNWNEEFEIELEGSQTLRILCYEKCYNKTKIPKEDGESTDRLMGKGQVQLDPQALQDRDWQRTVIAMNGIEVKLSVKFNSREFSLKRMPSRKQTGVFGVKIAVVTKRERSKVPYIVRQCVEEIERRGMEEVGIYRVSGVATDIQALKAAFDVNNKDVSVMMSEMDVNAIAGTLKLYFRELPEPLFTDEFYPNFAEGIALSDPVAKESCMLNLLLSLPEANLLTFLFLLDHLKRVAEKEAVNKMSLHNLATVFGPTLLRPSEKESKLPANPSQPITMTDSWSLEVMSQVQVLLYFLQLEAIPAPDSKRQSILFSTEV
T1 sequence (Q96SW2 whole entry, looked up): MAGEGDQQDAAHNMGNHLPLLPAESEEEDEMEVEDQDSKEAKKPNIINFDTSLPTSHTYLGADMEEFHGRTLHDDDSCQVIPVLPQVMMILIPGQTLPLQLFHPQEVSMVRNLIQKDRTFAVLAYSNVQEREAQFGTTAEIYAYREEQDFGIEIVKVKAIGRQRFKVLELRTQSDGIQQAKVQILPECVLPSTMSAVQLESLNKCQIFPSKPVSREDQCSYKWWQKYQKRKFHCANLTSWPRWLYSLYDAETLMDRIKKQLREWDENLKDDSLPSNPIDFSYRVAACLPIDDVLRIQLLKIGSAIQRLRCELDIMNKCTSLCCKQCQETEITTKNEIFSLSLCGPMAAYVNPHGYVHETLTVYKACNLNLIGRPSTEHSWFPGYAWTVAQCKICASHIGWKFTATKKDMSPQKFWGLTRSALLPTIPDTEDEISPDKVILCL

[3] = target: T1, Protein cereblon/Tyrosine-protein kinase ABL1/Breakpoint cluster region protein; experiment: Protac activity at CRBN/BCR-ABL in human K562 cells assessed as increase in BCR-ABL degradation at 100 nM by Western blotting analysis; assay type: cell-based
[4] = target: T1, Protein cereblon/Tyrosine-protein kinase ABL1/Breakpoint cluster region protein; experiment: Protac activity at CRBN/BCR-ABL in human K562 cells assessed as increase in BCR-ABL degradation at 5 nM by Western blotting analysis; assay type: cell-based

| pIC50 [1] | Activity [2] [%] | Activity [3] [%] | Activity [4] [%] | Compound |
| --- | --- | --- | --- | --- |
| 7.18 | – | 67.9 | 28.8 | O=C1CCC(N2Cc3c(OCCCCCCN4CCN(C5CCN(c6ncc(C(=O)Nc7ccc(OC(F)(F)Cl)cc7)cc6-c6ccn[nH]6)CC5)CC4)cccc3C2=O)C(=O)N1 (stereo not drawn) |
| 6.86 | – | 40 | 48.4 | O=C1CCC(N2Cc3c(SCCCN4CCN(c5ncc(C(=O)Nc6ccc(OC(F)(F)Cl)cc6)cc5-c5ccn[nH]5)CC4)cccc3C2=O)C(=O)N1 (stereo not drawn) |
| 7.31 | – | 49.6 | 55.5 | O=C1CCC(N2Cc3c(SCCCN4CCN(C5CCN(c6ncc(C(=O)Nc7ccc(OC(F)(F)Cl)cc7)cc6-c6ccn[nH]6)CC5)CC4)cccc3C2=O)C(=O)N1 (stereo not drawn) |
| 6.18 | -2.33 | – | – | O=C1CCC(N2Cc3c(NCCCC(=O)N4CCN(c5ncc(C(=O)Nc6ccc(OC(F)(F)Cl)cc6)cc5-c5ccn[nH]5)CC4)cccc3C2=O)C(=O)N1 (stereo not drawn) |
| 6.53 | – | 40.8 | 24.6 | O=C1CCC(N2Cc3c(SCCCCCCN4CCN(c5ncc(C(=O)Nc6ccc(OC(F)(F)Cl)cc6)cc5-c5ccn[nH]5)CC4)cccc3C2=O)C(=O)N1 (stereo not drawn) |
| 7.64 | – | 37.1 | 24.3 | O=C1CCC(N2Cc3c(SCCCCCN4CCN(C5CCN(c6ncc(C(=O)Nc7ccc(OC(F)(F)Cl)cc7)cc6-c6ccn[nH]6)CC5)CC4)cccc3C2=O)C(=O)N1 (stereo not drawn) |
| 6.98 | 35.1 | – | – | O=C1CCC(N2Cc3c(SCCCC(=O)N4CCN(c5ncc(C(=O)Nc6ccc(OC(F)(F)Cl)cc6)cc5-c5ccn[nH]5)CC4)cccc3C2=O)C(=O)N1 (stereo not drawn) |
| 6.77 | – | 70.9 | 38.2 | O=C1CCC(N2C(=O)c3cccc(SCCCCN4CCN(C5CCN(c6ncc(C(=O)Nc7ccc(OC(F)(F)Cl)cc7)cc6-c6ccn[nH]6)CC5)CC4)c3C2=O)C(=O)N1 (stereo not drawn) |

The remaining lines, values behind:

| Compound | pIC50 [1] | Activity [2] [%] | Activity [3] [%] | Activity [4] [%] |
| --- | --- | --- | --- | --- |
| O=C1CCC(N2C(=O)c3cccc(C#CCCCC(=O)N4CCN(c5ncc(C(=O)Nc6ccc(OC(F)(F)Cl)cc6)cc5-c5ccn[nH]5)CC4)c3C2=O)C(=O)N1 (stereo not drawn) | 6.56 | 9.65 | – | – |
| O=C1CCC(N2Cc3c(SCCCCCNc4ncc(C(=O)Nc5ccc(OC(F)(F)Cl)cc5)cc4-c4ccn[nH]4)cccc3C2=O)C(=O)N1 (stereo not drawn) | 6.25 | – | 29.6 | 6.85 |
| O=C1CCC(N2C(=O)c3cccc(NCCCCC(=O)N4CCN(c5ncc(C(=O)Nc6ccc(OC(F)(F)Cl)cc6)cc5-c5ccn[nH]5)CC4)c3C2=O)C(=O)N1 (stereo not drawn) | 6.77 | 1.94 | – | – |
| O=C1CCC(N2Cc3c(SCCCCCCNc4ncc(C(=O)Nc5ccc(OC(F)(F)Cl)cc5)cc4-c4ccn[nH]4)cccc3C2=O)C(=O)N1 (stereo not drawn) | 5.71 | – | -8.74 | -5.46 |
| O=C1CCC(N2C(=O)c3cccc(NCCOCCOCCC(=O)N4CCN(c5ncc(C(=O)Nc6ccc(OC(F)(F)Cl)cc6)cc5-c5ccn[nH]5)CC4)c3C2=O)C(=O)N1 (stereo not drawn) | 5.96 | -1.5 | – | – |
| O=C1CCC(N2C(=O)c3cccc(NCCCCCC(=O)N4CCN(c5ncc(C(=O)Nc6ccc(OC(F)(F)Cl)cc6)cc5-c5ccn[nH]5)CC4)c3C2=O)C(=O)N1 (stereo not drawn) | 6.73 | 1.67 | – | – |
| O=C1CCC(N2Cc3c(OCCCC(=O)N4CCN(c5ncc(C(=O)Nc6ccc(OC(F)(F)Cl)cc6)cc5-c5ccn[nH]5)CC4)cccc3C2=O)C(=O)N1 (stereo not drawn) | 5.67 | -12.3 | – | – |
| O=C1CCC(N2Cc3c(SCCCCNc4ncc(C(=O)Nc5ccc(OC(F)(F)Cl)cc5)cc4-c4ccn[nH]4)cccc3C2=O)C(=O)N1 (stereo not drawn) | 6.03 | – | -9.23 | -3.56 |
| O=C1CCC(N2C(=O)c3cccc(SCCCC(=O)N4CCN(c5ncc(C(=O)Nc6ccc(OC(F)(F)Cl)cc6)cc5-c5ccn[nH]5)CC4)c3C2=O)C(=O)N1 (stereo not drawn) | 6.28 | 9.57 | – | – |
